Data published in patent US20030191051A1, “Combination therapy for the treatment of bacterial infections” (priority 2002, published 2003).

Assay: Combination therapy of antibiotic and COX-2 selective inhibitor administered to a mammal to treat or prevent a bacterial infection
Details: pharmaceutically effective amount, administered together with a pharmaceutically effective amount of linezolid to a mammal

CS(=O)(=O)c1ccc(C2=C(c3ccccc3)C(=O)OC2)cc1 [rofecoxib]
side effects resulting from the administration of the antibiotic: reduced side effects
